Test results reported in paper PMC11794677, “Self‐Assembly of a Conjugate of Lipoic Acid With a Collagen‐Stimulating Pentapeptide Showing Cytocompatibility and Wound Healing Properties, and Chemical and Photolytic Disassembly” (Journal of Peptide Science, 2025).

Key:
Type in all cases: physicochemical
[1] = SAXS form factor fits (core-shell cylinder, generalized Gaussian coil); further: values in Å
Procedure: SAXS experiments were performed on beamline B21 [28] at Diamond (Didcot, UK). The sample solution was loaded into the 96‐well plate of an EMBL BioSAXS robot and then injected via an automated sample exchanger into a quartz capillary (1.8‐mm internal diameter) in the X‐ray beam. The quartz capillary was enclosed in a vacuum chamber, to avoid parasitic scattering. After the sample was injected into the capillary and reached the X‐ray beam, the flow was stopped during the SAXS data acquisition. Beamline B21 was operated with a fixed camera length (3.9 m) and fixed energy (12.4 keV). The images were captured using a PILATUS 2M detector. Data processing was performed using dedicated beamline software ScÅtter.
Cryo‐TEM was used to probe potential aggregation in solution above the CAC (3 wt% aqueous solution). […] The presence of such structures was also confirmed by SAXS and SANS data (Figure 3), which reveal form factor features that can be fitted using a core‐shell cylinder form factor, consistent with extended fibril structures. The cylinder radius is 25 Å, which is approximately equal to the estimated length of the molecule considering the lipid chain plus a pentapeptide in a β‐sheet conformation. […] For the SAXS data, it was necessary to include a contribution in the fits from unaggregated peptide, which gives rise to scattering at high q, described using a generalized Gaussian coil form factor (generalized refers to allowing the Flory exponent for the coil to vary from the value ν = 0.5 for an unperturbed coil). SANS data for 3 wt% solutions of lipoyl‐KTTKS in D2O can be fitted to a core‐shell cylinder form factor, consistent with SAXS, with fit parameters listed in Table S1. It was not necessary to allow for unaggregated monomer in fitting the SANS data, which may be because of the higher background and/or altered scattering contrast compared with SAXS. The cylinder radius and shell thickness obtained from the fits to the SANS data are in excellent agreement with the parameters obtained from the SAXS fit.
The ring‐opening of the lipoyl moiety can be achieved under reductive conditions. We examined the effect of chemical reduction on the self‐assembled structures of lipoyl‐KTTKS using TCEP [tris(2‐carboxyethyl)phosphine] as reductant. […] The SAXS data in Figure 3a show a considerable reduction in scattering intensity after addition of TCEP and the SANS profile in Figure 3b is barely above background after addition of TCEP. The SAXS data can be described using a form factor for monomer scattering with a power‐law intensity function at low q to account for a small fraction of irregular aggregates. The disruption of the fibrils upon TCEP addition was also confirmed by cryo‐TEM (images shown in Figure S1) because no aggregate structures were observed after addition of TCEP. Circular dichroism (CD) spectra shown in Figure 4 are characterized by a negative minimum in the CD spectrum at 196 nm along with the absence of defined features at higher wavelength, characteristic of a primarily disordered conformation. However, taking the difference between the CD spectra for lipoyl‐KTTKS without and with TCEP produces a spectrum (green spectrum in Figure 5) with a minimum near 215 nm, characteristic of β‐sheet structure. This is consistent with the observation that lipoyl‐KTTKS forms fibril‐like structures above a CAC detected by ThT binding to β‐sheet structure and as observed by cryo‐TEM, SAXS and SANS.
Table S1. SANS and SAXS data fitted parameters. Data fitted using SASfit,^[1-2] using a long cylindrical shell form factor model, with allowance for monomers via a Generalized Gaussian coil factor for SAXS data. […]

[2] = UV exposure / photodegradation, UV-vis absorbance at 333 nm; settings: UV lamp 365 nm for 1 h, 0.1 wt% solution, read 24 h after irradiation
Procedure: To investigate the effect of UV exposure on lipoyl‐KTTKS the peptide powder was irradiated using a 4W UVGL‐25 lamp (Analytik Jena, Germany) at a wavelength of 365 nm for 1 h. The absorbance was tracked at 333 nm before, just after exposure and 24 h after exposure using a nanodrop spectrometer (Thermo‐Fisher Scientific). The full spectra were also collected using a Varian Cary Bio 300 UV‐vis (Cary).
Lipoic acid is susceptible to photolysis upon exposure to UV light. Photodegradation of lipoyl‐KTTKS was studied via UV‐vis, FTIR and CD spectroscopy and degradation products were analysed by electrospray ionisation‐mass spectroscopy (ESI‐MS). Photolysis was induced by exposure to UV for 1 h using a UV lamp with 365‐nm radiation. Lipoic acid presents a characteristic weak band at 333 nm that is related to the hindered dithiolane ring, that can be broken by UV irradiation. The absorbance of lipoyl‐KTTKS (0.1 wt% solution) before irradiation, just after and 24 h after irradiation to evaluate the recovery of the dithiolane ring is shown in Figure 5. […] The UV exposure disrupts the dithiolane ring, as reflected also in the FTIR spectrum (Figure S2), with the suppression of bands ν(S‐S) at 519 and 438 cm^−1 and ν(C‐S) at 721 cm^−1 [48, 49].

[3] = SANS form factor fits (core-shell cylinder); settings: 3 wt% in D2O, 25°C, long cylindrical shell form factor; further: values in Å
Procedure: Measurements were performed using the LOQ instrument at ISIS Neutron and Muon Source, Oxfordshire, UK. LOQ operates in time‐of‐flight mode, with a wavelength range from 2.7 to 10.5 Å. Two detectors recorded simultaneously small and wide scattering merged in a typical range of wavenumbers q = 0.006 Å^−1 to 1.2 Å^−1. The main detector was fixed at 4 m from the sample, and the size of the beam was 8 mm diameter at the sample position. The samples were placed in quartz cuvettes and arranged on a multislot sample changer with temperature controlled by a thermal bath at 25°C. The background was subtracted and the scattering intensity normalized to the absolute scale cross calibrating with a polystyrene standard. Data reduction was performed using Mantid.
Cryo‐TEM was used to probe potential aggregation in solution above the CAC (3 wt% aqueous solution). […] The presence of such structures was also confirmed by SAXS and SANS data (Figure 3), which reveal form factor features that can be fitted using a core‐shell cylinder form factor, consistent with extended fibril structures. The cylinder radius is 25 Å, which is approximately equal to the estimated length of the molecule considering the lipid chain plus a pentapeptide in a β‐sheet conformation. […]

[4] = 3 wt%, long cylindrical shell form factor
[5] = 3 wt%, long cylindrical shell form factor, listed as lipoyl-KTTKS

Rg radius of gyration (monomer) ([1]; 3 wt% with 2.6 wt% TCEP, generalized Gaussian coil form factor): 6.3 Å | Rg radius of gyration (unaggregated peptide) ([1]; 3 wt%, generalized Gaussian coil form factor): 22.0 Å | L length [1, 4]: 987 Å | Ro outer radius (Gaussian polydispersity ΔR) [1, 4]: 25 Å | t shell thickness [1, 4]: 10 Å | Ro outer radius (Gaussian polydispersity ΔR) [1, 5]: 25.0 ± 25.0 Å | t shell thickness [1, 5]: 10.0 Å | Recovery of absorbance at 333 nm (dithiolane ring) after UV exposure [2]: incomplete recovery | L length [3]: 800 Å | t shell thickness [3]: 9.10 Å
Substance: lipoyl‐KTTKS [peptide amphiphile comprising a conjugate of lipoic acid to pentapeptide KTTKS]
